These are literature values, as cited in patent US5874104A, “Treatment of systemic fungal infections with phospholipid particles encapsulating polyene antibiotics” (NeXstar Pharmaceuticals, Inc., priority 1995, dated 1999).

Series [1] concerns host. The following applies: in vivo.
The test system of series [2] is patients. The settings on record: for Toxicity to cells of the patient: human, in vivo.
The conditions of series [3]: saline as suspending solution; Jurgens et al.
The subject of series [4] is renal tubules. The settings on record: mammals.

As to liposomal Amphotericin B, the “Host toxicity of liposomal drug” value in series [1] is listed as “decreased host toxicity”.

In the case of `C[C@@H]1[C@H](O)[C@@H](C)/C=C/C=C/C=C/C=C/C=C/C=C/C=C/[C@H](O[C@@H]2O[C@H](C)[C@@H](O)[C@H](N)[C@@H]2O)C[C@@H]2O[C@](O)(C[C@@H](O)C[C@@H](O)[C@H](O)CC[C@@H](O)C[C@@H](O)CC(=O)O[C@H]1C)C[C@H](O)[C@H]2C(=O)O` [amphotericin B], the Clinical toxicity result in series [2] (at therapeutic dose levels) is “acute hemolytic crisis and eventual kidney failure”. In addition, the “Toxicity to cells of the patient” value in series [2] was “acute and chronic toxicity”. Besides, in series [3], the Precipitation in saline entry is listed as “precipitation”. The “Toxicity for membrane systems” value in series [4] is on record as “greater for certain membrane systems, such as the renal tubules”.

For the compound `C[C@@H]1[C@H](O)[C@@H](C)/C=C/C=C/CC/C=C/C=C/C=C/C=C/C(O[C@H]2O[C@H](C)[C@@H](O)[C@H](N)[C@@H]2O)CC2O[C@](O)(CC(O)C(O)CCC(O)CC(O)CC(O)CC(=O)O[C@H]1C)CC(O)C2C(=O)O` (stereo partly drawn) [nystatin], the “Toxicity to cells of the patient” value in series [2] was “acute and chronic toxicity”.
